Measurements taken from patent publication US8835470B2, “Mandelamide heterocyclic compounds” (Bristol-Myers Squibb Company, priority 2010, dated 2014).
Where a name gives a salt, the structure may show the parent alone.

Legend:
S1P1 [1] = target: T1, S1P1 (Homo sapiens (Human), UniProt P21453); assay: Receptor [35S] GTPγS Binding Assay, S1P1; type: biochemical; conditions: for EC50: membranes from S1P1/CHO cells, [35S]GTP; for GTPγS S1P3/S1P1: ratio of GTPγS S1P3 EC50 to GTPγS S1P1 EC50, * and ** S1P3 value at detection limit
Experimental: (§1) Receptor [35S] GTPγS Binding Assays
(§2) Membranes prepared from S1P1/CHO cells or EDG3-Ga15-bla HEK293T cells were added to the compound plate (40 μl/well, final protein 3 μg/well) with MULTIDROP®. [^35S]GTP (1250 Ci/mmol, Perkin Elmer) was diluted in assay buffer: 20 mM HEPES, pH7.5, 10 mM MgCl2, 150 mM NaCl, 1 mM EGTA, 1 mM DTT, 10 μM GDP, 0.1% fatty acid free BSA, and 10 μg/ml Saponin to 0.4 nM. 40 μl of the [^35S] GTP solution was added to the compound plate with a final concentration of 0.2 nM. The reaction was kept at room temperature for 45 min. At the end of incubation, all the mixtures in the compound plate were transferred to a 384 well FB filter plates via GPCR robot system. The filter plate was washed with water 4 times by using the modified manifold Embla plate washer and dried at 60° C. for 45 min. 30 μl of MicroScint 20 scintillation fluid was added to each well for counting at Packard TOPCOUNT®.
A larger value for the GTPγS S1P3 EC50 value indicated less activity in the GTPγS S1P3 binding assay.

S1P3 = S1P3 (Homo sapiens (Human), UniProt Q99500); assay: Receptor [35S] GTPγS Binding Assay, S1P3; type: biochemical; conditions: membranes from EDG3-Ga15-bla HEK293T cells; * detection limit 62,500 nM, ** detection limit 32,500 nM
Experimental: as §1
as §2, with “Compounds were loaded in a 384 FALCON® v-bottom plate (0.5 μl/well in a 3-fold dilution). Membranes” for “Membranes”, “TOPCOUNT®. EC50 is defined as the agonist concentration that corresponds to 50% of the Ymax (maximal response) obtained for each individual compound tested.” for “TOPCOUNT®.”
A smaller value for GTPγS S1P1 EC50 value indicated greater activity for the compound in the GTPγS S1P1 binding assay. A larger value for the GTPγS S1P3 EC50 value indicated less activity in the GTPγS S1P3 binding assay.

S1P1 [2] = target: T1, S1P1; assay: S1P1 Binding Assay; conditions: membranes from CHO cells expressing human S1P1; 33P-S1P ligand; rounded to two digits
Experimental: Membranes were prepared from CHO cells expressing human S1P1. Cells were dissociated in buffer containing 20 mM HEPES, pH 7.5, 50 mM NaCl, 2 mM EDTA and Protease Inhibitor cocktail (Roche), and disrupted on ice using the Polytron homogenizer. The homogenate was centrifuged at 20,000 rpm (48,000 G) and the supernatant was discarded. The membrane pellets were resuspended in buffer containing 50 mM HEPES, pH 7.5, 100 mM NaCl, 1 mM MgCl2, 2 mM EDTA and stored in aliquots at −80° C. after protein concentration determination. Membranes (2 μg/well) and 0.03 nM final concentration of ^33P-S1P ligand (1 mCi/ml, American Radiolabeled Chemicals) were added to the compound plates. Binding was performed for 45 minutes at room temperature, terminated by collecting the membranes onto GF/B filter plates, and radioactivity was measured by TOPCOUNT®. The competition data of the test compounds over a range of concentrations was plotted as percentage inhibition of radioligand specific binding. The IC50 is defined as the concentration of competing ligand needed to reduce specific binding by 50%.
The results in Table A were rounded to two digits.

Chain of S1P3 (Q99500 whole entry): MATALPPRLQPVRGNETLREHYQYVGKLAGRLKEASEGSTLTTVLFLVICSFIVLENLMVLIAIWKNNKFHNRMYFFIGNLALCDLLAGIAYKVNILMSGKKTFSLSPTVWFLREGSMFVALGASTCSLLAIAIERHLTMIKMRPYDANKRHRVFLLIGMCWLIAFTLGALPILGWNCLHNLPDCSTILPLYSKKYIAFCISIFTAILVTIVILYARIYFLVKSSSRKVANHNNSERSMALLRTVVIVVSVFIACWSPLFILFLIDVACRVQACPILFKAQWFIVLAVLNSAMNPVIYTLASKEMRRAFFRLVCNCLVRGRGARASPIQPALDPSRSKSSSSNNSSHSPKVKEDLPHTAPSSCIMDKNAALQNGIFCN
T1 sequence (P21453 whole entry): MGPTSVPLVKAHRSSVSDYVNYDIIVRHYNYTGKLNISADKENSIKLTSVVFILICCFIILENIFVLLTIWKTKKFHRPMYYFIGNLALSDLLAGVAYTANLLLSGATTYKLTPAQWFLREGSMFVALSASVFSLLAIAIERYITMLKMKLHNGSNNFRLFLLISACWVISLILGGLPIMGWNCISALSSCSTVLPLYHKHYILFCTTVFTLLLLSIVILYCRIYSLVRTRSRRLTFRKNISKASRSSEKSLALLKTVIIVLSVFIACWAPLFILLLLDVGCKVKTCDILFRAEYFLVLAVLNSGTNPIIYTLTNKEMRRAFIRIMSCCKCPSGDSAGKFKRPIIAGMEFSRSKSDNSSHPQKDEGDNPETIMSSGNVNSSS

| Structure (SMILES) | EC50 (S1P1 [1]) | GTPγS S1P3/S1P1 (S1P1 [1]) | EC50 (S1P3) | IC50 (S1P1 [2]) |
| --- | --- | --- | --- | --- |
| CCNC(=O)C(O)c1ccc(-c2noc(-c3noc(-c4ccccc4)c3C(F)(F)F)n2)cc1 (racemic) [Example 67, (R/S)-N-Ethyl-2-hydroxy-2-(4-(5-(5-phenyl-4-(trifluoromethyl)isoxazol-3-yl)-1,2,4-oxadiazol-3-yl)phenyl)acetamide] | 17.4 nM | 1006 | 17.5 µM | 17 nM |
| O=C(NCc1cc2ccccc2[nH]1)C(O)c1ccc(-c2noc(-c3onc(-c4ccccc4)c3C(F)(F)F)n2)cc1 (racemic) [Example 86, (R/S)-N-((1H-Indol-2-yl)methyl)-2-hydroxy-2-(4-(5-(3-phenyl-4-(trifluoromethyl)isoxazol-5-yl)-1,2,4-oxadiazol-3-yl)phenyl)acetamide] | 1560 nM | > 20** | > 31.2 µM | 180 nM |
| CC(C)(C)OC(=O)NCCNC(=O)C(O)c1ccc(-c2noc(-c3onc(-c4ccccc4)c3C(F)(F)F)n2)cc1 (racemic) [Example 51, (R/S)-tert-Butyl 2-(2-hydroxy-2-(4-(5-(3-phenyl-4-(trifluoromethyl)isoxazol-5-yl)-1,2,4-oxadiazol-3-yl)phenyl)acetamido)ethylcarbamate] | 89.4 nM | – | 13.6 µM | 31 nM |
| O=C(NCc1ccccn1)C(O)c1ccc(-c2noc(-c3cnn(-c4ccccc4)c3C(F)(F)F)n2)cc1 (racemic) [Example 137, (R/S)-2-hydroxy-2-(4-(5-(1-phenyl-5-(trifluoromethyl)-1H-pyrazol-4-yl)-1,2,4-oxadiazol-3-yl)phenyl)-N-(pyridin-2-ylmethyl)acetamide] | 41.4 nM | 267 | 11 µM | 4.9 nM |
| CNC(=O)[C@H](CCc1ccccc1)NC(=O)C(O)c1ccc(-c2noc(-c3onc(-c4ccccc4)c3C(F)(F)F)n2)cc1 (mixture of isomers) [Example 26, (R/S)-(2S)-2-(2-Hydroxy-2-(4-(5-(3-phenyl-4-(trifluoromethyl)isoxazol-5-yl)-1,2,4-oxadiazol-3-yl)phenyl)acetamido)-N-methyl-4-phenylbutanamide] | 4280 nM | 1.4 | 6.2 µM | 910 nM |
| Cc1nnc(CNC(=O)C(O)c2ccc(-c3noc(-c4onc(-c5ccccc5)c4C(F)(F)F)n3)cc2)o1 (single isomer, unassigned) [Example 10, 2-Hydroxy-N-((5-methyl-1,3,4-oxadiazol-2-yl)methyl)-2-(4-(5-(3-phenyl-4-(trifluoromethyl)isoxazol-5-yl)-1,2,4-oxadiazol-3-yl)phenyl)acetamide] | 4.7 nM | 2795 | 13.1 µM | 2 nM |
| O=C(NCCO)C(O)c1ccc(-c2noc(-c3noc(-c4ccccc4)c3C(F)(F)F)n2)cc1 (racemic) [Example 62, (R/S)-2-Hydroxy-N-(2-hydroxyethyl)-2-(4-(5-(5-phenyl-4-(trifluoromethyl)isoxazol-3-yl)-1,2,4-oxadiazol-3-yl)phenyl)acetamide] | 12.6 nM | 731 | 9.21 µM | 3.2 nM |
| O=C(NC1CCC1)C(O)c1ccc(-c2noc(-c3onc(-c4ccccc4)c3C(F)(F)F)n2)cc1 (racemic) [Example 116, (R/S)-N-Cyclobutyl-2-hydroxy-2-(4-(5-(3-phenyl-4-(trifluoromethyl)isoxazol-5-yl)-1,2,4-oxadiazol-3-yl)phenyl)acetamide] | – | > 387* | > 62.5 µM | – |
| O=C(NCc1nc2ccccc2[nH]1)C(O)c1ccc(-c2noc(-c3onc(-c4ccccc4)c3C(F)(F)F)n2)cc1 (racemic) [Example 90, (R/S)-N-((1H-Benzo[d]imidazol-2-yl)methyl)-2-hydroxy-2-(4-(5-(3-phenyl-4-(trifluoromethyl)isoxazol-5-yl)-1,2,4-oxadiazol-3-yl)phenyl)acetamide] | 31.5 nM | 171 | 5.38 µM | 13 nM |
| CCNC(=O)C(O)c1ccc(-c2noc(-c3cnn(-c4ccccc4)c3C(F)(F)F)n2)cc1 (racemic) [Example 61, (R/S)-N-Ethyl-2-hydroxy-2-(4-(5-(1-phenyl-5-(trifluoromethyl)-1H-pyrazol-4-yl)-1,2,4-oxadiazol-3-yl)phenyl)acetamide] | 34.2 nM | > 1827* | > 62.5 µM | 8.5 nM |
| Cn1cccc1CNC(=O)C(O)c1ccc(-c2noc(-c3onc(-c4ccccc4)c3C(F)(F)F)n2)cc1 (racemic) [Example 132, (R/S)-2-hydroxy-N-((1-methyl-1H-pyrrol-2-yl)methyl)-2-(4-(5-(3-phenyl-4-(trifluoromethyl)isoxazol-5-yl)-1,2,4-oxadiazol-3-yl)phenyl)acetamide] | 636 nM | 27 | 17.1 µM | 42 nM |
| O=C(NCC1CCCN1)C(O)c1ccc(-c2noc(-c3onc(-c4ccccc4)c3C(F)(F)F)n2)cc1 (racemic) [Example 88, (R/S)-2-Hydroxy-2-(4-(5-(3-phenyl-4-(trifluoromethyl)isoxazol-5-yl)-1,2,4-oxadiazol-3-yl)phenyl)-N-(pyrrolidin-2-ylmethyl)acetamide, TFA] | 102 nM | 58 | 5.94 µM | 29 nM |
| O=C(NC1CNC1)C(O)c1ccc(-c2noc(-c3onc(-c4ccccc4)c3C(F)(F)F)n2)cc1 (single isomer, unassigned) [Example 30, N-(Azetidin-3-yl)-2-hydroxy-2-(4-(5-(3-phenyl-4-(trifluoromethyl)isoxazol-5-yl)-1,2,4-oxadiazol-3-yl)phenyl)acetamide-TFA] | 50.9 nM | > 614** | > 31.2 µM | 4.5 nM |
| O=C(NCc1cnco1)C(O)c1ccc(-c2noc(-c3onc(-c4ccccc4)c3C(F)(F)F)n2)cc1 (racemic) [Example 126, (R/S)-2-hydroxy-N-(oxazol-5-ylmethyl)-2-(4-(5-(3-phenyl-4-(trifluoromethyl)isoxazol-5-yl)-1,2,4-oxadiazol-3-yl)phenyl)acetamide] | 13.6 nM | 1484 | 20.2 µM | 2.1 nM |
| CCN(C)C(=O)C(O)c1ccc(-c2noc(-c3onc(-c4ccccc4)c3C(F)(F)F)n2)cc1 (racemic) [Example 24, (R/S)-N-Ethyl-2-hydroxy-N-methyl-2-(4-(5-(3-phenyl-4-(trifluoromethyl)isoxazol-5-yl)-1,2,4-oxadiazol-3-yl)phenyl)acetamide] | 1050 nM | > 60* | > 62.5 µM | 350 nM |
| CNC(=O)[C@H](C)NC(=O)C(O)c1ccc(-c2noc(-c3onc(-c4ccccc4)c3C(F)(F)F)n2)cc1 (mixture of isomers) [Example 32, (R/S)-2-(2-Hydroxy-2-(4-(5-(3-phenyl-4-(trifluoromethyl)isoxazol-5-yl)-1,2,4-oxadiazol-3-yl)phenyl)acetamido)-N-methyl(S)propanamide] | 1.5 nM | 10707 | 16.1 µM | 2.6 nM |
